In ChEMBL document CHEMBL1129840, “The synthesis and SAR of new 4-(N-alkyl-N-phenyl)amino-6,7-dimethoxyquinazolines and 4-(N-alkyl-N-phenyl)aminopyrazolo[3,4-d]pyrimidines, inhibitors of CSF-1R tyrosine kinase activity” (Bioorg Med Chem Lett, 1997):

Assays:
[1] = molecular target: Macrophage colony-stimulating factor 1 receptor (Homo sapiens, UniProt P07333); test: Antagonism towards Colony stimulating factor 1 receptor (CSF-1R); type: functional
[2] = molecular target: Epidermal growth factor receptor (Homo sapiens, UniProt P00533); test: Antagonism towards Epidermal growth factor receptor
Sequence of Epidermal growth factor receptor (P00533 whole entry): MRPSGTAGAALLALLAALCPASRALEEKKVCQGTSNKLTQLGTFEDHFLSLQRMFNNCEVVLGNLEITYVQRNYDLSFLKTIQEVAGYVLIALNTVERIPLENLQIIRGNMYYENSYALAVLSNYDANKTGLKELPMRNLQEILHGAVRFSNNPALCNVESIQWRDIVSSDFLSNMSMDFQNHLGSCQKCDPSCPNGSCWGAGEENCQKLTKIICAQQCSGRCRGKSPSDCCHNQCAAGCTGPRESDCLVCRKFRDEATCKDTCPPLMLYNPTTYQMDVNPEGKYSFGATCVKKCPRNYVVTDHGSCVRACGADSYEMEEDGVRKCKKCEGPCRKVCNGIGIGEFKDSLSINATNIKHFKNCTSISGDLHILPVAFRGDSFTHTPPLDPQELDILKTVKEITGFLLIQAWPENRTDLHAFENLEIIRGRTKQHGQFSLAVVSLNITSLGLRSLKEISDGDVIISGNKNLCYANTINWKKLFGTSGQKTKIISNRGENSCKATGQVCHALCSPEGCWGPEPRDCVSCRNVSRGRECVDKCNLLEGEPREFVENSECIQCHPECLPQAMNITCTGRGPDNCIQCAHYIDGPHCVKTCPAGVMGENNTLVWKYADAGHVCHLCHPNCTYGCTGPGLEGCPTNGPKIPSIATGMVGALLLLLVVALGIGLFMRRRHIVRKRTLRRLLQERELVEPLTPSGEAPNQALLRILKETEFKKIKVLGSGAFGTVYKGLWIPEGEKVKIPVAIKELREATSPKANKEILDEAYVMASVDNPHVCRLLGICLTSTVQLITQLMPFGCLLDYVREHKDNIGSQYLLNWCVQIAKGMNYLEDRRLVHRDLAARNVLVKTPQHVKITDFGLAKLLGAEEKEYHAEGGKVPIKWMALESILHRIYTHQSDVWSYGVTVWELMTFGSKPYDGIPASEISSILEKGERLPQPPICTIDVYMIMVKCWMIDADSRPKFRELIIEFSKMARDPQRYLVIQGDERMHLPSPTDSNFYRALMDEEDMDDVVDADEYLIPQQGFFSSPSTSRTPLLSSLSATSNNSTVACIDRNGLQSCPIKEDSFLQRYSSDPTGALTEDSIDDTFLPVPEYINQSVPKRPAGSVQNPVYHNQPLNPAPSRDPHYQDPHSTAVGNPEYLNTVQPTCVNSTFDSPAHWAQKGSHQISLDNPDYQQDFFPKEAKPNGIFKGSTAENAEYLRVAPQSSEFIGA

[3] = molecular target: Platelet-derived growth factor receptor (Homo sapiens, UniProt P09619+P16234); test: Inhibition of platelet-derived growth factor receptor (PDGF-R)
[4] = molecular target: Tyrosine-protein kinase Lck (Homo sapiens, UniProt P06239); test: Inhibition of p56 lck tyrosine kinase (inactive)
Sequence of Tyrosine-protein kinase Lck (P06239 whole entry): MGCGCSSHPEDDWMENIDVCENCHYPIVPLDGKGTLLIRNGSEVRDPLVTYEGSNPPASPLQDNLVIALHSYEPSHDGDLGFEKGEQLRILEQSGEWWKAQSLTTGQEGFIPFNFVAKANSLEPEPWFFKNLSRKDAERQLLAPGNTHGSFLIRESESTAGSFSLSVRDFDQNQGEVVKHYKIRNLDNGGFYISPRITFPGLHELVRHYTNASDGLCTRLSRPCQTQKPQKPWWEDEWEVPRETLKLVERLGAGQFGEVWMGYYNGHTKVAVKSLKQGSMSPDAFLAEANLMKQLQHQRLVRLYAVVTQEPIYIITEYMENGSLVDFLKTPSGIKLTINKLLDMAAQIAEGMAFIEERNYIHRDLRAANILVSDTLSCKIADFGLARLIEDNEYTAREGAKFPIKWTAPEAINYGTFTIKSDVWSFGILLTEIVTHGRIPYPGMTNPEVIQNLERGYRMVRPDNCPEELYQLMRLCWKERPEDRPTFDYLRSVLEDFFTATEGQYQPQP

Sequence of Macrophage colony-stimulating factor 1 receptor (P07333 whole entry): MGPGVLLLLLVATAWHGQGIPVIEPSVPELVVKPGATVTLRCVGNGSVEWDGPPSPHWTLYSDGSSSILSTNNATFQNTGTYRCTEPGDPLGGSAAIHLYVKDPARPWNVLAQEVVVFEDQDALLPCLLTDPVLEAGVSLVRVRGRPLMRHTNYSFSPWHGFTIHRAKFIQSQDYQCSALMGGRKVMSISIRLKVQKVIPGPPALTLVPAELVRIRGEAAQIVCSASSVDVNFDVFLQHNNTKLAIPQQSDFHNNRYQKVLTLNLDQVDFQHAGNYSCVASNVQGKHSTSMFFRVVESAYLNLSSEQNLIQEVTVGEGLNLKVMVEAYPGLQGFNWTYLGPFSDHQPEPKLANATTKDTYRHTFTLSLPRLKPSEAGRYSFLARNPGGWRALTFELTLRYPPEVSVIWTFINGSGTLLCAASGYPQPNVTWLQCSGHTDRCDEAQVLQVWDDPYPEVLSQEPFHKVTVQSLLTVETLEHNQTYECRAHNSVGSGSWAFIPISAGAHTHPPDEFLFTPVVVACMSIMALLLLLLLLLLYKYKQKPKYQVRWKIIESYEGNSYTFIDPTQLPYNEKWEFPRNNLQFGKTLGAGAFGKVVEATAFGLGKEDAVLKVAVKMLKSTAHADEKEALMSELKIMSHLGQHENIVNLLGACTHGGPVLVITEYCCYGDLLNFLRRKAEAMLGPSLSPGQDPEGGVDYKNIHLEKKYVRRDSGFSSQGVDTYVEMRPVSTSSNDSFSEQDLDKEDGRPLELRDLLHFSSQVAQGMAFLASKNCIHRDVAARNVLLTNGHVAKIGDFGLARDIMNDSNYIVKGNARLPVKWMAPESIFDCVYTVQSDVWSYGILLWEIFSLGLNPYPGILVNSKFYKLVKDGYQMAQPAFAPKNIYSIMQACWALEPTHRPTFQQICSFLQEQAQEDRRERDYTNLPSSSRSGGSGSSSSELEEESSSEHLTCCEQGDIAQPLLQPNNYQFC

| IC50 [1] | IC50 [2] | IC50 [3] | IC50 [4] | Compound |
| --- | --- | --- | --- | --- |
| > 20 µM | > 20 µM | – | – | Cc1cc(C)c2ncnc(N(C)c3ccccc3)c2c1 |
| 5 µM | > 20 µM | – | – | CN(c1ccccc1)c1ncnc2ccc(Cl)cc12 |
| > 50 µM | > 50 µM | – | – | COc1cc2nc(Cl)nc(N(C)c3ccccc3)c2cc1OC |
| > 50 µM | > 50 µM | – | – | COc1nc(N(C)c2ccccc2)c2cc(OC)c(OC)cc2n1 |
| > 20 µM | > 50 µM | – | – | CN(c1ccccc1)c1ncnc2ccccc12 |
| 4 µM | 2 µM | – | – | CN(c1ccccc1)c1ncnc2[nH]cnc12 |
| 0.5 µM | 30 µM | – | – | COc1cc2ncnc(N(C)c3cccc(C(F)(F)F)c3)c2cc1OC |
| 0.6 µM | > 50 µM | – | – | CN(c1ccccc1)c1[nH]cnc2nncc1-2 |
| > 50 µM | 0.05 µM | – | – | COc1cc2ncnc(Nc3ccccc3)c2cc1OC |
| 20 µM | > 20 µM | – | – | COc1ccc2ncnc(N(C)c3ccccc3)c2c1 |
| 2.1 µM | 3 µM | – | – | COc1cc2ncnc(N(C)c3ccc(Cl)cc3)c2cc1OC |
| – | 4 µM | 15 µM | > 100 µM | COc1cc2ncnc(N(C)c3ccccc3)c2cc1OC |
| > 100 µM | – | 20 µM | – | COc1cc2ncnc(Nc3cc(OC)c(OC)c(OC)c3)c2cc1OC |
| > 20 µM | > 20 µM | – | – | COc1cc2c(N(C)c3ccccc3)ncnc2c(OC)c1OC |
| 2 µM | 4 µM | – | – | COc1cc2ncnc(N(C)c3ccc(C)cc3)c2cc1OC |
| 5 µM | 3 µM | – | – | COc1cc2ncnc(N3CCc4ccccc43)c2cc1OC |
| 1.5 µM | 0.1 µM | – | – | COc1cc2ncnc(N(C)c3cccc(Cl)c3)c2cc1OC |
| – | 5.5 µM | – | – | CCN(c1ccccc1)c1ncnc2cc(OC)c(OC)cc12 |
| 1.6 µM | 6.5 µM | – | – | Cc1cccc(N(C)c2ncnc3cc(C)c(C)cc23)c1 |

| Compound | IC50 [1] | IC50 [2] | IC50 [3] | IC50 [4] |
| --- | --- | --- | --- | --- |
| Cc1cccc(N(C)c2ncnc3n[nH]cc23)c1 | 0.18 µM | > 50 µM | – | – |
| COc1cc2ncnc(N(C)c3cccc(C)c3)c2cc1OC | 0.18 µM | 12 µM | – | – |
